We go through two substances from patent US20230302104A1, “TREATMENT AND/OR PREVENTION OF A DISEASE OR A SYNDROME RELATED TO A VIRUS INFECTION” (priority 2020, published 2023).

Test [1] deals with SARS-CoV-2 spike pseudotyped lentivirus entry in HeLa cells overexpressing TMPRSS2. In kind it is cell-based. As to conditions: 10 µM.
Test [2] has as its system SARS-CoV-2 spike pseudovirus entry in ACE2 overexpressing A549 human lung alveolar basal epithelium cells. It counts as cell-based.

For plasma derived AAT, the “inhibitory effect on SARS-CoV-2 pseudoviral cell-entry” value in test [1] is “no inhibitory effect”. The “effect on SARS-CoV-2 pseudoviral entry in combination with IFN-beta-1a” value in test [2] is “additive inhibitory effect”.
With rhAAT, in test [2], the SARS-CoV-2 pseudovirus entry result is given as “inhibits viral entry of several viruses”.
